Holding throughout (type): in vivo
One assay concerns Radopholus similis. The assay is described as follows: Nematode control, nodules per plant: Radopholus similis. The note with it: 1 μM foliar application every 5 days, evaluation 35 days after, control 45. In outline: (§1)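 Read-out: nodule count per plant at final evaluation 35 days after start. Foliar spray of 1 μM compound (ethanol stock diluted in water) repeated every 5 days, ten plants per treatment.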

The test system of another assay is Phytophthora parasitica. The assay is described as follows: Control of Phytophthora parasitica disease in tobacco (Pp-Nt). The note with it: 1 μM spraying every 24 hours for one week, water control 91.
Another assay concerns Alternaria solani. The assay is described as follows: Control of Alternaria solani disease in tomato (As-SI). The note with it: 1 μM spraying every 24 hours for one week, water control 68. In outline: (§2)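 Inoculated plants received a daily 1 μM compound spray for seven days. Outcomes were plant mortality for Nocardia, leaves with symptoms (%) for Alternaria, and measured lesion diameter for Botrytis, relative to water-treated plants.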

The test system of assay [1] is Botrytis cinerea. The assay is described as follows: Control of Botrytis cinerea disease in tomato (Bc-SI). Conditions: 1 μM spraying every 24 hours for one week, water control 7.4. In outline: as §2
Assay [2] has as its system Candidatus 'Liberibacter asiaticus'. The note with it: spraying every 15 days, 12 months after treatment, Citrus sinensis with HLB.
The next assay deals with Meloidogyne incognita. The assay is described as follows: Nematode control, nodules per plant: Meloidogyne incognita. The note with it: 1 μM foliar application every 5 days, evaluation 35 days after, control 34. An outline of the steps: as §1
The subject of assay [3] is Rhizoctonia solani. The assay is described as follows: Control of Rhizoctonia solani disease in tobacco (Rs-Nt). The note with it: 1 μM spraying every 24 hours for one week, water control 87.
Assay [4] relates to Rhizoctonia solani. The assay is described as follows: Control of Rhizoctonia solani disease in tomato (Rs-SI). The note with it: 1 μM spraying every 24 hours for one week, water control 96.
For the next assay, the system named is Pratylenchus coffeae. Put plainly: Nematode control, nodules per plant: Pratylenchus coffeae. Conditions: 1 μM foliar application every 5 days, evaluation 35 days after, control 42. An outline of the steps:
as §1

Assay [5] has as its system Botrytis cinerea. The assay is described as follows: Control of Botrytis cinerea disease in tobacco (Bc-Nt). Conditions: 1 μM spraying every 24 hours for one week, water control 6.7. An outline of the steps:
as §2

Assay [6] deals with Botrytis cinerea. The assay is described as follows: Control of Botrytis cinerea disease in Arabidopsis (Bc-At). Conditions: 1 μM spraying every 24 hours for one week, water control 8.7. An outline of the steps: as §2
In a further assay the test system is Nocardia sp. The assay is described as follows: Control of Nocardia sp disease in tobacco (N-Nt). Conditions: 1 μM spraying every 24 hours for one week, water control 58. In outline:
as §2

Read-outs that look alike come from different tables or passages of the source.

The values that follow come from US11013235B2 (priority 2015, dated 2021).

Regarding `CC(O)C(O)CN1CCC(Oc2ccc(C(=O)N3CCC(n4cccc4)C3)cc2)CC1` (stereo not shown) [IVL, 1-[4-(4-{[3-(1H-pyrrol-1-yl)pyrrolidin-1-yl]carbonyl}phenoxy)piperidin-1-yl]butane-2,3-diol], in the assay on Radopholus similis, the “Rs: number of nodules per plant” value came to 2. The “Pp-Nt: percentage of mortality” value in the assay on Phytophthora parasitica was found to be 2%. Besides, the “As-SI: percentage of leaves with the disease symptoms” value (from here on “As-SI: percentage of leaves”) in the assay with Alternaria solani worked out at 2%. Besides, the “Bc-SI: mean of the diameter of the lesion” value (“Bc-SI: mean” below) in the assay on Botrytis cinerea [1] came out at 2.5 mm. Further, the “Titers of the bacterium” value in assay [2] (0.001 μM) came to 635 copies per reaction; in [2] (0.01 μM), 1 copies per reaction; in assay [2] (1 μM) it was 7 copies per reaction; in assay [2] (5 μM) it was 65 copies per reaction; in assay [2] (10 μM) it was 9853 copies per reaction. In addition, in the assay on Meloidogyne incognita, the “Mi: number of nodules per plant” value stood at 3. Also, in the assay on Rhizoctonia solani [3], the “Rs-Nt: percentage of mortality” value is recorded as 3%. The “Rs-SI: percentage of mortality” value in the assay on Rhizoctonia solani [4] is 2%. For the same compound, in the assay with Pratylenchus coffeae, the “Pc: number of nodules per plant” value is given as 12. Besides, the “Bc-Nt: mean of the diameter of the lesion” value (shortened to “Bc-Nt: mean”) with Botrytis cinerea [5] worked out at 1.5 mm. The “Bc-At: mean of the diameter of the lesion” value (“Bc-At: mean” for short) with Botrytis cinerea [6] is recorded as 1.5 mm. In addition, the “N-Nt: percentage of mortality” value in the assay with Nocardia sp is listed as 1%.
Consider `Cc1nc(N2CCN(n3cccc3)CC2)ncc1C(=O)N1CC2CC(O)C(O)CC2C1` (stereo not shown) [IIIL, 2-({4-methyl-2-[4-(1H-pyrrol-1-yl)piperazin-1-yl]pyrimidin-5-yl}carbonyl)-octahydro-1H-isoindole-5,6-diol], for which the “Rs: number of nodules per plant” value in the assay with Radopholus similis came to 0. In the assay on Phytophthora parasitica, the “Pp-Nt: percentage of mortality” value came to 0%. For the same compound, in the assay on Alternaria solani, the “As-SI: percentage of leaves” value is recorded as 7%. Further, in the assay with Botrytis cinerea [1], the “Bc-SI: mean” value was 2.5 mm. The “Titers of the bacterium” value in assay [2] (0.001 μM) was 524 copies per reaction; in assay [2] (0.01 μM) it was 0 copies per reaction; in assay [2] (1 μM), 6 copies per reaction; in assay [2] (5 μM), 54 copies per reaction; in assay [2] (10 μM) it was 5840 copies per reaction. Also, the “Mi: number of nodules per plant” value in the assay with Meloidogyne incognita was 0. For the same compound, in the assay on Rhizoctonia solani [3], the “Rs-Nt: percentage of mortality” value stood at 0%. Moreover, in the assay with Rhizoctonia solani [4], the “Rs-SI: percentage of mortality” value turned out to be 0%. For the same compound, in the assay on Pratylenchus coffeae, the “Pc: number of nodules per plant” value came out at 0. Further, the “Bc-Nt: mean” value with Botrytis cinerea [5] turned out to be 1.5 mm. In addition, in the assay on Botrytis cinerea [6], the “Bc-At: mean” value is reported as 1.5 mm. The “N-Nt: percentage of mortality” value with Nocardia sp turned out to be 0%.
Regarding `Cc1coc2cc3oc(=O)c(CCC(=O)NCC(O)CO)c(C)c3cc12` (stereo not shown) [IH, N-(2,3-dihydroxypropyl)-3-{4,6-dimethyl-2-oxo-2H-furo[3,2-g]chromen-3-yl}propanamide], the “Rs: number of nodules per plant” value in the assay on Radopholus similis was 19. The “Pp-Nt: percentage of mortality” value in the assay on Phytophthora parasitica came out at 1%. For the same compound, the “As-SI: percentage of leaves” value with Alternaria solani is 1%. Moreover, the “Bc-SI: mean” value in the assay on Botrytis cinerea [1] amounted to 1.6 mm. The “Titers of the bacterium” value in assay [2] (0.001 μM) is given as 658 copies per reaction; in assay [2] (0.01 μM) it was 8 copies per reaction; in [2] (1 μM), 12 copies per reaction; in [2] (5 μM), 68 copies per reaction; in assay [2] (10 μM) it was 4569 copies per reaction. Moreover, the “Mi: number of nodules per plant” value in the assay with Meloidogyne incognita is given as 21. In addition, the “Rs-Nt: percentage of mortality” value in the assay on Rhizoctonia solani [3] was 2%. Moreover, the “Rs-SI: percentage of mortality” value in the assay on Rhizoctonia solani [4] turned out to be 3%. Also, the “Pc: number of nodules per plant” value in the assay on Pratylenchus coffeae is 11. For the same compound, in the assay with Botrytis cinerea [5], the “Bc-Nt: mean” value turned out to be 2.0 mm. In addition, the “Bc-At: mean” value in the assay with Botrytis cinerea [6] was 1.1 mm. In addition, in the assay with Nocardia sp, the “N-Nt: percentage of mortality” value was found to be 1%.
As to `CC(O)C(O)CN1CCC(Oc2ccc(C(=O)N3CCC(c4ccccc4)C3)cc2)CC1` (stereo not shown) [IVD, 1-(4-{4-[(3-phenylpyrrolidin-1-yl)carbonyl]phenoxy}piperidin-1-yl)butane-2,3-diol], the “Rs: number of nodules per plant” value in the assay on Radopholus similis was determined as 2. In addition, the “Pp-Nt: percentage of mortality” value with Phytophthora parasitica was 2%. Further, in the assay on Alternaria solani, the “As-SI: percentage of leaves” value turned out to be 2%. Moreover, the “Bc-SI: mean” value with Botrytis cinerea [1] is 1.6 mm. Besides, the “Titers of the bacterium” value in [2] (0.001 μM) was found to be 587 copies per reaction; in [2] (0.01 μM), 0 copies per reaction; in assay [2] (1 μM), 0 copies per reaction; in [2] (5 μM) it was 87 copies per reaction; in assay [2] (10 μM), 2368 copies per reaction. In addition, the “Mi: number of nodules per plant” value in the assay on Meloidogyne incognita is given as 3. The “Rs-Nt: percentage of mortality” value in the assay with Rhizoctonia solani [3] was found to be 3%. The “Rs-SI: percentage of mortality” value in the assay on Rhizoctonia solani [4] is listed as 2%. Besides, in the assay with Pratylenchus coffeae, the “Pc: number of nodules per plant” value is given as 15. Besides, the “Bc-Nt: mean” value in the assay with Botrytis cinerea [5] turned out to be 2.0 mm. In addition, in the assay with Botrytis cinerea [6], the “Bc-At: mean” value was determined as 1.1 mm. Moreover, the “N-Nt: percentage of mortality” value in the assay on Nocardia sp is 1%.
Consider `Cc1c(CCC(=O)NCC(O)CO)c(=O)oc2cc3occ(-c4ccc5ccccc5c4)c3cc12` (stereo not shown) [IL, N-(2,3-dihydroxypropyl)-3-[4-methyl-6-(naphthalen-2-yl)-2-oxo-2H-furo[3,2-g]chromen-3-yl]propanamide], for which the “Rs: number of nodules per plant” value with Radopholus similis is given as 0. Moreover, the “Pp-Nt: percentage of mortality” value with Phytophthora parasitica is 0%. Besides, the “As-SI: percentage of leaves” value in the assay with Alternaria solani came out at 7%. Moreover, the “Bc-SI: mean” value in the assay with Botrytis cinerea [1] turned out to be 1.2 mm. Moreover, the “Titers of the bacterium” value in assay [2] (0.001 μM) was 578 copies per reaction; in assay [2] (0.01 μM) it was 0 copies per reaction; in [2] (1 μM) it was 0 copies per reaction; in assay [2] (5 μM), 78 copies per reaction; in assay [2] (10 μM), 3574 copies per reaction. In addition, the “Mi: number of nodules per plant” value in the assay with Meloidogyne incognita stood at 0. Also, in the assay with Rhizoctonia solani [3], the “Rs-Nt: percentage of mortality” value came to 0%. In the assay on Rhizoctonia solani [4], the “Rs-SI: percentage of mortality” value is 0%. In addition, in the assay on Pratylenchus coffeae, the “Pc: number of nodules per plant” value amounted to 0. The “Bc-Nt: mean” value in the assay with Botrytis cinerea [5] amounted to 0.9 mm. Further, the “Bc-At: mean” value in the assay with Botrytis cinerea [6] is reported as 0.7 mm. In the assay with Nocardia sp, the “N-Nt: percentage of mortality” value came to 0%.
On to `O=C(Cc1cc2c(oc1=O)C=CC1C(c3ccc4ccccc4c3)=COC21)NCC(O)CO` (stereo not shown) [IIE, N-(2,3-dihydroxypropyl)-2-[5-(naphthalen-2-yl)-11-oxo-3,10-dioxatricyclo[7.4.0.0^{2,6}]trideca-1(9),4,7,12-tetraen-12-yl]acetamide], for which the “Rs: number of nodules per plant” value in the assay with Radopholus similis turned out to be 0. Moreover, in the assay on Phytophthora parasitica, the “Pp-Nt: percentage of mortality” value worked out at 0%. Besides, the “As-SI: percentage of leaves” value in the assay on Alternaria solani worked out at 7%. Moreover, in the assay on Botrytis cinerea [1], the “Bc-SI: mean” value was 0.8 mm. Further, the “Titers of the bacterium” value in assay [2] (0.001 μM) is listed as 985 copies per reaction; in assay [2] (0.01 μM), 1 copies per reaction; in [2] (1 μM) it was 5 copies per reaction; in [2] (5 μM) it was 98 copies per reaction; in [2] (10 μM) it was 2547 copies per reaction. Besides, in the assay on Meloidogyne incognita, the “Mi: number of nodules per plant” value worked out at 0. For the same compound, the “Rs-Nt: percentage of mortality” value in the assay on Rhizoctonia solani [3] worked out at 0%. The “Rs-SI: percentage of mortality” value in the assay with Rhizoctonia solani [4] worked out at 0%. Moreover, in the assay on Pratylenchus coffeae, the “Pc: number of nodules per plant” value stood at 0. In addition, the “Bc-Nt: mean” value with Botrytis cinerea [5] was 0.3 mm. For the same compound, the “Bc-At: mean” value in the assay with Botrytis cinerea [6] is 1.2 mm. Besides, the “N-Nt: percentage of mortality” value in the assay with Nocardia sp was 0%.
As for `O=C(Cc1cc2c(oc1=O)C=CC1C=COC21)NCC(O)CO` (stereo not shown) [IIF, N-(2,3-dihydroxypropyl)-2-{11-oxo-3,10-dioxatricyclo[7.4.0.0^{2,6}]trideca-1(9),4,7,12-tetraen-12-yl}acetamide], the “Rs: number of nodules per plant” value in the assay on Radopholus similis is on record as 0. The “Pp-Nt: percentage of mortality” value with Phytophthora parasitica came out at 0%. For the same compound, the “As-SI: percentage of leaves” value in the assay with Alternaria solani is recorded as 5%. Moreover, the “Bc-SI: mean” value in the assay with Botrytis cinerea [1] was determined as 1.6 mm. Further, the “Titers of the bacterium” value is listed as 657 copies per reaction in assay [2] (0.001 μM); 9 copies per reaction in assay [2] (0.01 μM); 0 copies per reaction in [2] (1 μM); 67 copies per reaction in [2] (5 μM); 6547 copies per reaction in assay [2] (10 μM). Also, the “Mi: number of nodules per plant” value in the assay with Meloidogyne incognita came out at 0. The “Rs-Nt: percentage of mortality” value with Rhizoctonia solani [3] worked out at 0%. For the same compound, the “Rs-SI: percentage of mortality” value with Rhizoctonia solani [4] was 1%. In the assay on Pratylenchus coffeae, the “Pc: number of nodules per plant” value worked out at 0. Also, the “Bc-Nt: mean” value with Botrytis cinerea [5] is on record as 2.0 mm. The “Bc-At: mean” value in the assay with Botrytis cinerea [6] came to 1.1 mm. Also, the “N-Nt: percentage of mortality” value with Nocardia sp came out at 0%.
